Assay results from patent US11142526B2, “Spirocycle compounds and methods of making and using same” (H. Lundbeck A/S, priority 2017, dated 2021).
Where two headings read alike, the source gives them in different places.

Legend:
[1] = molecular target: T1, MAGL (Mus musculus (Mouse), UniProt O35678); assay: In vitro competitive activity-based protein profiling, mouse brain proteome; assay type: biochemical; details: for inhibition at 1 µM: mouse; for IC50: mouse brain
[2] = molecular target: T1, MAGL; assay: Mouse brain proteomes from inhibitor treated mice (oral gavage, brain MAGL activity 4 h after administration); assay type: in vivo; details: 5 mg/kg oral gavage
Procedure: Preparation of Mouse Brain Proteomes from Inhibitor Treated Mice.
Inhibitors were administered to wild-type C57B1/6J by oral gavage in a vehicle of polyethylene glycol.

[3] = molecular target: MAGL (Homo sapiens (Human), UniProt Q99685); assay: In vitro competitive activity-based protein profiling (gel-based, FP-Rh or HT-01 probe); assay type: biochemical; details: for IC50: read-out: MAGL Human PC3 (IC50)
Procedure: In Vitro Competitive Activity-Based Protein Profiling.
Proteomes (human prefrontal cortex or cell membrane fractions) (50 μL, 1.0 mg/mL total protein concentration) were preincubated with varying concentrations of inhibitors at 37° C. After 30 min, FP-Rh or HT-01 (1.0 μL, 50 μM in DMSO) was added and the mixture was incubated for another 30 min at room temperature. Reactions were quenched with SDS loading buffer (15 μL—4×) and run on SDS-PAGE.

[4] = human PC3, read-out: MAGL % Inhibition at 1 μM (human PC3)
[5] = human PFC (prefrontal cortex), read-out: MAGL % Inhibition at 1 μM (human PFC)

T1 sequence (O35678 whole entry): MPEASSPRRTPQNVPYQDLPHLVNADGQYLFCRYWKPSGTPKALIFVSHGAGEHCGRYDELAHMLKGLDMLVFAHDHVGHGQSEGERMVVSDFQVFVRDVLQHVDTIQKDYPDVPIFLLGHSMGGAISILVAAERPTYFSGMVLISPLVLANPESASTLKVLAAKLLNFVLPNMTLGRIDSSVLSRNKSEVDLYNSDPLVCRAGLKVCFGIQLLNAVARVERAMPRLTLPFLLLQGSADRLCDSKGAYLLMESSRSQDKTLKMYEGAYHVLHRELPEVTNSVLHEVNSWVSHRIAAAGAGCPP
Sequence of MAGL (Homo sapiens (Human), UniProt Q99685) (Q99685 whole entry): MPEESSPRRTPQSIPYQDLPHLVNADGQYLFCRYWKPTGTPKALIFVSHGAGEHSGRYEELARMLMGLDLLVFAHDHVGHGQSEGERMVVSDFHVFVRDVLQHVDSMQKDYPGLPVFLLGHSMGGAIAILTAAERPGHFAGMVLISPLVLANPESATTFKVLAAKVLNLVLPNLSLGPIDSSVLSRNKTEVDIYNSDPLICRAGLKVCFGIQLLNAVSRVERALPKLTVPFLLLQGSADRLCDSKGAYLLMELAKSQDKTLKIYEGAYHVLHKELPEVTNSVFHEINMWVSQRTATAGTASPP

Row | inhibition at 1 µM [1] [%] | IC50 [1] [nM] | IC50 ([3]; human PC3) [nM] | inhibition at 1 µM [3, 4] [%] | inhibition at 1 µM [3, 5] [%] | SMILES | MAGL % Inhibition at 5 mg/kg (Mouse) [2]
1 | > 75 | < 100 | < 100 |  |  | O=C(OC(C(F)(F)F)C(F)(F)F)N1CCC2(CCCN2C(=O)c2cc3ccc(Cl)cc3s2)CC1 [Example 60, 1,1,1,3,3,3-Hexafluoropropan-2-yl 1-(6-chlorobenzo[b]thiophene-2-carbonyl)-1,8-diazaspiro[4.5] decane-8-carboxylate] | ### (% inhibition is greater than or equal to 75%)
2 | > 75 |  | < 100 | > 75 | > 75 | CN(C(=O)C1(c2cnccn2)CC1)C1(C)CCN(C(=O)OC(C(F)(F)F)C(F)(F)F)CC1 [Example 176, 1,1,1,3,3,3-Hexafluoropropan-2-yl 4-methyl-4-(N-methyl-1-(pyrazin-2-yl)cyclopropane-1-carboxamido) piperidine-1-carboxylate] | # (% inhibition less or equal to 25%)
3 | > 75 | < 100 | < 100 |  |  | CC(C)n1cc(CN2CCCC23CCN(C(=O)OC(C(F)(F)F)C(F)(F)F)CC3)c(-c2ccccc2F)n1 [Example 221, 1,1,1,3,3,3-Hexafluoropropan-2-yl 1-((3-(2-fluorophenyl)-1-isopropyl-1H-pyrazol-4-yl)methyl)-1,8-diazaspiro[4.5] decane-8-carboxylate] | ### (% inhibition is greater than or equal to 75%)
4 | > 75 |  | < 100 | > 75 | > 75 | O=C(OC(C(F)(F)F)C(F)(F)F)N1CCC2(CCCN2C(=O)C2(c3cnc(C4CC4)nc3)CC2)CC1 [Example 38, 1,1,1,3,3,3-Hexafluoropropan-2-yl 1-(1-(2-cyclopropylpyrimidin-5-yl)cyclopropane-1-carbonyl)-1,8-diazaspiro[4.5]decane-8-carboxylate] | ### (% inhibition is greater than or equal to 75%)
5 | > 75 |  | < 100 | > 75 | > 75 | O=C(OC(C(F)(F)F)C(F)(F)F)N1CCC2(CCCN2C(=O)c2cn3c(n2)CN(CC2CC2)CC3)CC1 [Example 154, 1,1,1,3,3,3-Hexafluoropropan-2-yl 1-(7-(cyclopropylmethyl)-5,6,7,8-tetrahydroimidazo[1,2-a]pyrazine-2-carbonyl)-1,8-diazaspiro[4.5] decane-8-carboxylate] | ### (% inhibition is greater than or equal to 75%)
6 | > 75 |  | < 100 | > 75 | > 75 | CC1(NC(=O)c2cn3c(n2)CN(C2CC2)CC3)CCN(C(=O)OC(C(F)(F)F)C(F)(F)F)CC1 [Example 174, 1,1,1,3,3,3-Hexafluoropropan-2-yl 4-(7-cyclopropyl-5,6,7,8-tetrahydroimidazo[1,2-a]pyrazine-2-carboxamido)-4-methylpiperidine-1-carboxylate] | ### (% inhibition is greater than or equal to 75%)
7 | > 75 |  | < 100 | > 75 | > 75 | Cc1nc2cccnn2c1C(=O)N1CCCC12CCN(C(=O)OC(C(F)(F)F)C(F)(F)F)CC2 [Example 143, 1,1,1,3,3,3-Hexafluoropropan-2-yl 1-(2-methyl-imidazo[1,2-b]pyridazine-3-carbonyl)-1,8-diazaspiro[4.5] decane-8-carboxylate] | ### (% inhibition is greater than or equal to 75%)
8 | > 75 | < 100 | < 100 |  |  | O=C(OC(C(F)(F)F)C(F)(F)F)N1CCC2(CCCN2Cc2cnc3ccccn23)CC1 [Example 228, 1,1,1,3,3,3-Hexafluoropropan-2-yl 1-(imidazo [1,2-a]pyridin-3-ylmethyl)-1,8-diazaspiro[4.5]decane-8-carboxylate] | ### (% inhibition is greater than or equal to 75%)
9 | > 75 | < 100 | < 100 |  |  | O=C(OC(C(F)(F)F)C(F)(F)F)N1CCC2(CCCN2Cc2cnc(N3CCCC3)s2)CC1 [Example 226, 1,1,1,3,3,3-Hexafluoropropan-2-yl 1-((2-(pyrrolidin-1-yl)thiazol-5-yl)methyl)-1,8-diazaspiro[4.5]decane-8-carboxylate] | ### (% inhibition is greater than or equal to 75%)
10 | > 75 | < 100 | < 100 |  |  | O=C(OC(C(F)(F)F)C(F)(F)F)N1CCC2(CCCN2Cc2cc3cc(Cl)ccc3s2)CC1 [Example 40, 1,1,1,3,3,3-Hexafluoropropan-2-yl 1-((5-chlorobenzo[b]thiophen-2-yl)methyl)-1,8-diazaspiro[4.5] decane-8-carboxylate] | ### (% inhibition is greater than or equal to 75%)
11 | > 75 |  | < 100 | > 75 | > 75 | CC(C)(O)CN1CCn2cc(C(=O)N3CCCC34CCN(C(=O)OC(C(F)(F)F)C(F)(F)F)CC4)nc2C1 [Example 21, 1,1,1,3,3,3-Hexafluoropropan-2-yl 1-(7-(2-hydroxy-2-methylpropyl)-5,6,7,8-tetrahydroimidazo[1,2-a]pyrazine-2-carbonyl)-1,8-diazaspiro[4.5]decane-8-carboxylate] | # (% inhibition less or equal to 25%)
12 | > 75 |  | < 100 | > 75 | > 75 | CC(C)C(=O)N1CCn2cc(C(=O)NC3(C)CCN(C(=O)OC(C(F)(F)F)C(F)(F)F)CC3)nc2C1 [Example 37, 1,1,1,3,3,3-Hexafluoropropan-2-yl 4-(7-isobutyryl-5,6,7,8-tetrahydroimidazo[1,2-a]pyrazine-2-carboxamido)-4-methylpiperidine-1-carboxylate] | # (% inhibition less or equal to 25%)
13 | > 75 |  | < 100 |  | > 75 | O=C(O)C1CCN(c2nc(C(F)(F)F)ccc2CN2CCCC23CCN(C(=O)OC(C(F)(F)F)C(F)(F)F)CC3)CC1 [Example 123, 1-(3-((8-(((1,1,1,3,3,3-Hexafluoropropan-2-yl)oxy)carbonyl)-1,8-diazaspiro[4.5]decan-1-yl)methyl)-6-(trifluoromethyl)pyridin-2-yl)piperidine-4-carboxylic acid] | ### (% inhibition is greater than or equal to 75%)
14 | > 75 |  |  | > 75 | > 75 | O=C(OC(C(F)(F)F)C(F)(F)F)N1CCC2(CCCN2C(=O)c2cc3nc(Cl)ccn3n2)CC1 [Example 151, 1,1,1,3,3,3-Hexafluoropropan-2-yl 1-(5-chloropyrazolo[1,5-a]pyrimidine-2-carbonyl)-1,8-diazaspiro[4.5] decane-8-carboxylate] | ## (% inhibition is less than 75% and greater than 25%)
15 | > 75 |  | < 100 | > 75 | > 75 | O=C(OC(C(F)(F)F)C(F)(F)F)N1CCC2(CCCN2C(=O)C2(c3ncc(Cl)cn3)CC2)CC1 [Example 31, 1,1,1,3,3,3-Hexafluoropropan-2-yl 1-(1-(5-chloropyrimidin-2-yl)cyclopropane-1-carbonyl)-1,8-diazaspiro[4.5]decane-8-carboxylate] | ### (% inhibition is greater than or equal to 75%)
16 | > 75 |  | < 100 | > 75 | > 75 | CC1(NC(=O)c2nnc3n2CCN(C2COC2)C3)CCN(C(=O)OC(C(F)(F)F)C(F)(F)F)CC1 [Example 207, 1,1,1,3,3,3-Hexafluoropropan-2-yl 4-methyl-4-(7-(oxetan-3-yl)-5,6,7,8-tetrahydro-[1,2,4]triazolo [4,3-a]pyrazine-3-carboxamido) piperidine-1-carboxylate] | ### (% inhibition is greater than or equal to 75%)
17 | > 75 | < 100 | < 100 |  |  | O=C(OC(C(F)(F)F)C(F)(F)F)N1CCC2(CCCN2Cc2ccc3cc(F)ccc3n2)CC1 [Example 56, 1,1,1,3,3,3-Hexafluoropropan-2-yl 1-((6-fluoroquinolin-2-yl)methyl)-1,8-diazaspiro[4.5] decane-8-carboxylate] | ### (% inhibition is greater than or equal to 75%)
18 | > 75 |  | < 100 | > 75 | > 75 | O=C(OC(C(F)(F)F)C(F)(F)F)N1CCC2(CCCN2C(=O)c2cc3n(n2)CCN(C2CC2)C3)CC1 [Example 155, 1,1,1,3,3,3-Hexafluoropropan-2-yl 1-(5-cyclopropyl-4,5,6,7-tetrahydropyrazolo [1,5-a]pyrazine-2-carbonyl)-1,8-diazaspiro[4.5] decane-8-carboxylate] | ### (% inhibition is greater than or equal to 75%)
19 | > 75 |  | < 100 | > 75 | > 75 | Cc1nc2ccc(Cl)nn2c1C(=O)N1CCCC12CCN(C(=O)OC(C(F)(F)F)C(F)(F)F)CC2 [Example 142, 1,1,1,3,3,3-Hexafluoropropan-2-yl 1-(6-chloro-2-methylimidazo[1,2-b]pyridazine-3-carbonyl)-1,8-diazaspiro[4.5] decane-8-carboxylate] | ### (% inhibition is greater than or equal to 75%)
